Structures are written as SMILES. Structures can show the parent of a compound that is named as a salt. Marks after values point to notes of the source that are not given here.

For one data set, the system named is pembrolizumab. As to the kind of experiment: Viscosity of pembrolizumab test formulations (mVROC viscometer). Particulars: 10 mM histidine buffer, 200 mg/mL pembrolizumab, 0.2 M excipient, pH 5.5. The class given is physicochemical. The procedure:
Pembrolizumab formulations comprised the following: 10 mM histidine buffer, pembrolizumab at a concentration of 200 mg/mL, and the test excipient (pegylated excipient of the invention, as described herein) at a concentration of 200 mM, pH adjusted to pH 5.5. Pembrolizumab formulations without excipients consisted of 200 mg/mL pembrolizumab in 10 mM histidine buffer at pH 5.5. The 10 mM histidine buffer used with pembrolizumab formulations consisted of consists of 10 mM L-histidine in sterile water, pH adjusted to 5.5.
(§1) All viscosity measurements were conducted using the mVROC (Viscometer/Rheometer-On-A-Chip, RheoSense, Inc., San Ramon, Calif.). The test formulations were placed into a 250 μl Hamilton air-tight syringe, which was then placed inside the syringe jacket of the mVROC. The instrument injected formulation into the chip for viscosity measurement at an appropriate flow rate. Most measurements were done in duplicates.
For `COCCOCCN[C@@H](CCCNC(=N)N)C(=O)O` [Example 14, (S)-5-guanidino-2-((2-(2-methoxyethoxy)ethyl)amino)pentanoic acid], the “Viscosity 1” value is given as 24.59 mPa-s, the “Viscosity 2” value stood at 24.76 mPa-s and the “Viscosity Average” value turned out to be 24.68 mPa-s.

Turning to `COCCOCCOCCOCC(=O)N[C@@H](CCCNC(=N)N)C(=O)O` [Example 17, (2,5,8,11-tetraoxatridecan-13-oyl)-L-arginine], the “Viscosity 1” value is on record as 23.09 mPa-s, the “Viscosity 2” value came out at 22.82 mPa-s and the “Viscosity Average” value was determined as 22.96 mPa-s.

As to `N=C(N)NCCC[C@@H](C(=O)O)N(CCOCCO)CCOCCO` [Example 20, (S)-2-(bis(2-(2-hydroxyethoxy)ethyl)amino)-5-guanidinopentanoic acid], the “Viscosity 1” value amounted to 25.28 mPa-s, the “Viscosity 2” value amounted to 25.42 mPa-s and the “Viscosity Average” value was found to be 25.35 mPa-s.

Regarding `COCCOCC(=O)N[C@@H](CCCCN)C(=O)O` [Example 10, (S)-6-amino-2-(2-(2-methoxyethoxy)acetamido)hexanoic acid], the “Viscosity 1” value is 26.39 mPa-s, the “Viscosity 2” value worked out at 26.35 mPa-s and the “Viscosity Average” value is 26.37 mPa-s.

On to `COCCOCCOCCN[C@@H](Cc1c[nH]cn1)C(=O)O` [Example 19, (2-(2-(2-methoxyethoxy)ethoxy)ethyl)-L-histidine], for which the “Viscosity 1” value is reported as 26.58 mPa-s, the “Viscosity 2” value stood at 26.83 mPa-s and the “Viscosity Average” value is given as 26.71 mPa-s.

With `COCCOCCOCC(=O)N[C@@H](Cc1c[nH]cn1)C(=O)O` [Example 1, (S)-12-((1H-imidazol-4-yl)methyl)-10-oxo-2,5,8-trioxa-11-azatridecan-13-oic acid], the “Viscosity 1” value is 23.12 mPa-s, the “Viscosity 2” value amounted to 23.27 mPa-s and the “Viscosity Average” value was 23.20 mPa-s.

Consider `COCCOCCOCC(=O)N[C@@H](CCCNC(=N)N)C(=O)O` [Example 2, (S)-12-(3-guanidinopropyl)-10-oxo-2,5,8-trioxa-11-azatridecan-13-oic acid], for which the “Viscosity 1” value is 22.05 mPa-s, the “Viscosity 2” value was 22.24 mPa-s and the “Viscosity Average” value stood at 22.15 mPa-s.

Take `O=C(O)[C@H](Cc1c[nH]cn1)N(CCOCCO)CCOCCO` [Example 21, (S)-2-(bis(2-(2-hydroxyethoxy)ethyl)amino)-3-(1H-imidazol-4-yl)propanoic acid]: the “Viscosity 1” value is 23.19 mPa-s, the “Viscosity 2” value was 23.16 mPa-s and the “Viscosity Average” value worked out at 23.18 mPa-s.

`N[C@@H](Cc1c[nH]cn1)C(=O)O` [Histidine, reference compound]: the “Viscosity 1” value is on record as 35.79 mPa-s, the “Viscosity 2” value turned out to be 35.32 mPa-s and the “Viscosity Average” value came out at 35.56 mPa-s.

`N=C(N)NCCC[C@H](N)C(=O)O` [Arginine, reference compound]: the “Viscosity 1” value is reported as 30.25 mPa-s, the “Viscosity 2” value was found to be 30.55 mPa-s and the “Viscosity Average” value is 30.40 mPa-s.

Regarding `COCCOCCN[C@@H](Cc1c[nH]cn1)C(=O)O` [Example 12, (S)-3-(1H-imidazol-4-yl)-2-((2-(2-methoxyethoxy)ethyl)amino)propanoic acid], the “Viscosity 1” value is 22.19 mPa-s, the “Viscosity 2” value is recorded as 22.33 mPa-s and the “Viscosity Average” value was 22.26 mPa-s.

Turning to `COCCOCCN(CCOCCOC)[C@@H](Cc1c[nH]cn1)C(=O)O` [Example 6, (S)-2-(bis(2-(2-methoxyethoxy)ethyl)amino)-3-(1H-imidazol-4-yl)propanoic acid], the “Viscosity 1” value was 17.57* *Ave- rage of 3 values mPa-s, the “Viscosity 2” value is recorded as 18.10* *Ave- rage of 3 values mPa-s and the “Viscosity Average” value was 17.83** **Ave- rage of 6 values mPa-s.

For `COCCOCCN(CCOCCOC)[C@@H](CCCCN)C(=O)O` [Example 11, (S)-6-amino-2-(bis(2-(2-methoxyethoxy)ethyl)amino)hexanoic acid], the “Viscosity 1” value stood at 21.36 mPa-s, the “Viscosity 2” value came to 21.50 mPa-s and the “Viscosity Average” value is 21.43 mPa-s.

With `COCCOCCN(CCOCCOC)[C@@H](CCCNC(=N)N)C(=O)O` [Example 5, (S)-2-(bis(2-(2-methoxyethoxy)ethyl)amino)-5-guanidinopentanoic acid], the “Viscosity 1” value is on record as 18.02* *Ave- rage of 4 values mPa-s, the “Viscosity 2” value is 18.37* *Ave- rage of 4 values mPa-s and the “Viscosity Average” value is reported as 18.19** **Ave- rage of 8 values mPa-s.

Consider `COCCOCC(=O)N[C@@H](CCCNC(=N)N)C(=O)O` [Example 15, (2-(2-methoxyethoxy)acetyl)-L-arginine dihydrochloride], for which the “Viscosity 1” value was 18.67 mPa-s and the “Viscosity Average” value was determined as 18.67 mPa-s.

On to `COCCOCCOCCOCC(=O)N[C@@H](Cc1c[nH]cn1)C(=O)O` [Example 16], for which the “Viscosity 1” value was determined as 23.33 mPa-s, the “Viscosity 2” value was 23.54 mPa-s and the “Viscosity Average” value is on record as 23.44 mPa-s.

As for `COCCOCCN(C(=O)COCCOC)[C@@H](Cc1c[nH]cn1)C(=O)O` [Example 4, (S)-3-(1H-imidazol-4-yl)-2-(2-(2-methoxyethoxy)-N-(2-(2-methoxyethoxy)ethyl)acetamido)propanoic acid], the “Viscosity 1” value came out at 19.64 mPa-s, the “Viscosity 2” value was determined as 19.28 mPa-s and the “Viscosity Average” value was found to be 19.46 mPa-s.

For the compound `COCCOCC(=O)N[C@@H](Cc1ccccc1)C(=O)O` [Example 22], the “Viscosity 1” value stood at 17.77 mPa-s, the “Viscosity 2” value is reported as 17.63 mPa-s and the “Viscosity Average” value came out at 17.70 mPa-s.

Turning to `COCCOCCOCCOCCN[C@@H](Cc1c[nH]cn1)C(=O)O` [Example 18, (2,5,8,11-tetraoxatridecan-13-yl)-L-histidine], the “Viscosity 1” value is given as 22.82 mPa-s, the “Viscosity 2” value was found to be 22.47 mPa-s and the “Viscosity Average” value is on record as 22.65 mPa-s.

As to `COCCOCCN(C(=O)COCCOC)[C@@H](CCCNC(=N)N)C(=O)O` [Example 3, (S)-5-guanidino-2-(2-(2-methoxyethoxy)-N-(2-(2-methoxyethoxy)ethyl)acetamido)pentanoic acid], the “Viscosity 1” value was 21.12 mPa-s, the “Viscosity 2” value came to 21.18 mPa-s and the “Viscosity Average” value was 21.15 mPa-s.

As to `COCCOCC(=O)N[C@@H](Cc1ccc(O)cc1)C(=O)O` [Example 23, (2-(2-methoxyethoxy)acetyl)-L-tyrosine], the “Viscosity 1” value was determined as 20.15 mPa-s, the “Viscosity 2” value worked out at 20.09 mPa-s and the “Viscosity Average” value was 20.12 mPa-s.

With `COCCOCC(=O)N[C@@H](Cc1c[nH]cn1)C(=O)O` [Example 13, (2-(2-methoxyethoxy)acetyl)-L-histidine], the “Viscosity 1” value is recorded as 20.05 mPa-s, the “Viscosity 2” value was 20.09 mPa-s and the “Viscosity Average” value was 20.07 mPa-s.

For another data set, the system named is Antibody B. As to the kind of experiment: Viscosity of Antibody B test formulations (mVROC viscometer). The class given is physicochemical. The note with it: 10 mM histidine buffer, 177 mg/mL Antibody B, 0.2 M excipient, pH 6.0. The procedure: Antibody B formulations comprised the following: 10 mM histidine buffer, Antibody B at a concentration of 177 mg/mL and the test excipient (pegylated excipient of the invention, as described herein) at a concentration of 200 mM, pH adjusted to pH 6.0. The Antibody B formulation without excipients consisted of 177 mg/mL Antibody B in 10 mM histidine buffer at pH 6.0. The 10 mM histidine buffer used with Antibody B consisted of 10 mM L-histidine in sterile water, pH adjusted to 6.0.
as §1
`COCCOCCN(CCOCCOC)[C@@H](Cc1c[nH]cn1)C(=O)O` [Example 9, (S)-2-(bis(2-(2-methoxyethoxy)ethyl)amino)-3-(1H-imidazol-4-yl)propanoic acid dihydrochloride]: the “Viscosity 1” value is reported as 26.55 mPa-s, the “Viscosity 2” value is 26.67 mPa-s and the “Viscosity Average” value is on record as 26.61 mPa-s.

Regarding `COCCOCCN(CCOCCOC)[C@@H](CCCNC(=N)N)C(=O)O` [Example 8, (S)-2-(bis(2-(2-methoxyethoxy)ethyl)amino)-5-guanidinopentanoic acid dihydrochloride], the “Viscosity 1” value was 22.25 mPa-s, the “Viscosity 2” value came to 22.19 mPa-s and the “Viscosity Average” value is listed as 22.22 mPa-s.
